# Test results from patent US9187475B2, “Pyrrolopyridinone derivatives as TTX-S blockers” (RaQualia Pharma Inc., priority 2012, dated 2015).
# Key:
# Assay type in all cases: cell-based
# [1] = molecular target: T1, human NaV1.3 channels (Homo sapiens, UniProt Q9NY46); assay: FRET assay, HEK293 cells expressing human NaV1.3 channels; settings: read-out: activities against Nav1.3
# T1 construct: expressed in transfected cells; host or cells: HEK293
# Experimental: (§1) The ability of the pyrrolopyridinone derivatives of the formula (I) to inhibit the NaV1.3, Nav1.7 and Nav1.5 channels is measured by Fluorescence Resonance Energy Transfer (FRET) assay and electrophysiology assay described below.
# (§2) This screen is used to determine the effects of compounds on human NaV1.3, human Nav1.7, and human Nav1.5 channels, utilising electrical field stimulation (EFS) system in 96-well plate format on FDSS (Hamamatsu Photonics) platform. The change of membrane potential is monitored with FRET dye pair, oxonol (DiSBAC2(3)) and coumarin (CC2-DMPE).
# (§3) Each HEK293 cells expressing human NaV1.3 channels and HEK293 cells expressing human NaV1.5 channels are grown in T225 flasks, in a 5% CO2 humidified incubator to about 80% confluence. Media composition consists of Dulbecco's Modified Eagle Medium (high glucose), 10% FCS, 100 units/mL penicillin, 100 microgram/mL streptomycin and 500 microgram/mL Geneticin™. […]
# (§4) The data are analyzed and reported as normalized ratios of intensities measured at […]. […]
# (§5) This analysis is performed using a computerized specific program designed for FDSS generated data. Fluorescence ratio values are plotted using XLfit™ to determine an IC50 value for each compound.
# [2] = molecular target: T2, human Nav1.5 channels (Homo sapiens, UniProt Q14524); assay: FRET assay, HEK293 cells expressing human NaV1.5 channels; settings: read-out: activities against Nav1.5
# T2 construct: expressed in transfected cells; host or cells: HEK293
# T2 sequence (Q14524 whole entry): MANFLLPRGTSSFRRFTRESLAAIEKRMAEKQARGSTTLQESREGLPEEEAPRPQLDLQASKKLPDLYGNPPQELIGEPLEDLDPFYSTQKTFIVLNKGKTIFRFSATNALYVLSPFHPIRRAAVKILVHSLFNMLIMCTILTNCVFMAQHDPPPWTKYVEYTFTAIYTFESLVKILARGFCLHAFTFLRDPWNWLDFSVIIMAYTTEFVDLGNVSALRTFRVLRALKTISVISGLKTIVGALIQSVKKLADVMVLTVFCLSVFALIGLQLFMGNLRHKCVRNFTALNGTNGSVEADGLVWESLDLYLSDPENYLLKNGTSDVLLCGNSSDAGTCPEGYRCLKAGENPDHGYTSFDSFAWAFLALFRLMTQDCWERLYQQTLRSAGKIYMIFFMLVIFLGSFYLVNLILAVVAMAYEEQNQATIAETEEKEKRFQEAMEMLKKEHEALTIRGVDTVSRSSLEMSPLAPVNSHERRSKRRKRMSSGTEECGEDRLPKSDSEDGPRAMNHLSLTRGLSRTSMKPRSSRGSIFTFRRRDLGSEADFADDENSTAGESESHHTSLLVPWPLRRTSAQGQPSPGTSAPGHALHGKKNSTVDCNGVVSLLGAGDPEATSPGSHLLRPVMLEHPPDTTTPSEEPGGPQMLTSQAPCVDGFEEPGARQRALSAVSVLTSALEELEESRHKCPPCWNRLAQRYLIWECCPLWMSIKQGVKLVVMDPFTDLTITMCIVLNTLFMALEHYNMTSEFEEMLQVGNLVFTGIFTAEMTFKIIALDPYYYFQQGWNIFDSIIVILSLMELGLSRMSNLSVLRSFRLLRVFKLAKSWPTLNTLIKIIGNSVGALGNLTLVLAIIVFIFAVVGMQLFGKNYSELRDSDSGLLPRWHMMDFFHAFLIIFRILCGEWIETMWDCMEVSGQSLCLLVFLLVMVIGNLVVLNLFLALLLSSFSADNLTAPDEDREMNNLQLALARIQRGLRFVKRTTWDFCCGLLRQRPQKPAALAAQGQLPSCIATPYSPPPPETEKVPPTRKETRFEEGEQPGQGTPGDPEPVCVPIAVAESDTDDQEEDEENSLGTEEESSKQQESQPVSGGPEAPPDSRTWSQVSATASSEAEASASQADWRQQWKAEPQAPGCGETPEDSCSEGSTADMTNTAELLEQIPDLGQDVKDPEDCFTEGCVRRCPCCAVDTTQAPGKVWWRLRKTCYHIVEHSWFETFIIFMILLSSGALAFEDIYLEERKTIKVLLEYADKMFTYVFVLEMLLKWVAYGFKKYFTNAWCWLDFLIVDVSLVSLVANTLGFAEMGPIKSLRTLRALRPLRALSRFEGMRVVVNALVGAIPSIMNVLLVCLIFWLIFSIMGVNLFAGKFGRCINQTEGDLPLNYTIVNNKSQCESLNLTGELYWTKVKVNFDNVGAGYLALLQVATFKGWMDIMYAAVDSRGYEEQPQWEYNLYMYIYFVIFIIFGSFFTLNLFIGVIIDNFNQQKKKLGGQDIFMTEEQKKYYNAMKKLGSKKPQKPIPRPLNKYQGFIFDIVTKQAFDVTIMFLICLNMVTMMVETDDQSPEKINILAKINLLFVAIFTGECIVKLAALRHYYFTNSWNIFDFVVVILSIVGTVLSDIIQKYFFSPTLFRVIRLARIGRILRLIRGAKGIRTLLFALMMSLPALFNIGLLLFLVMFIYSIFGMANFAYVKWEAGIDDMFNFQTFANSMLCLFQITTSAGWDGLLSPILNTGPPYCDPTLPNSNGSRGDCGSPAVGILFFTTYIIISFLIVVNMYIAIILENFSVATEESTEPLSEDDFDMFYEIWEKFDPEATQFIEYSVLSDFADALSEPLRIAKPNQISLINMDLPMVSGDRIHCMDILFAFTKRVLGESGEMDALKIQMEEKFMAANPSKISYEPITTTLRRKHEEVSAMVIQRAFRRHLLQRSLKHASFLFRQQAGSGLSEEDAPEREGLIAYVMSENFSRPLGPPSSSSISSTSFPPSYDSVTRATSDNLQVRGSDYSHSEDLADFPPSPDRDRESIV
# Experimental: as §1, §2, §3, §4, §5
# [3] = molecular target: T3, human Nav1.7 channels (Homo sapiens, UniProt Q15858); assay: FRET assay, CHO cells expressing human NaV1.7 channels; settings: read-out: activities against Nav1.7
# T3 construct: expressed in transfected cells; host or cells: CHO
# T3 sequence (Q15858 whole entry): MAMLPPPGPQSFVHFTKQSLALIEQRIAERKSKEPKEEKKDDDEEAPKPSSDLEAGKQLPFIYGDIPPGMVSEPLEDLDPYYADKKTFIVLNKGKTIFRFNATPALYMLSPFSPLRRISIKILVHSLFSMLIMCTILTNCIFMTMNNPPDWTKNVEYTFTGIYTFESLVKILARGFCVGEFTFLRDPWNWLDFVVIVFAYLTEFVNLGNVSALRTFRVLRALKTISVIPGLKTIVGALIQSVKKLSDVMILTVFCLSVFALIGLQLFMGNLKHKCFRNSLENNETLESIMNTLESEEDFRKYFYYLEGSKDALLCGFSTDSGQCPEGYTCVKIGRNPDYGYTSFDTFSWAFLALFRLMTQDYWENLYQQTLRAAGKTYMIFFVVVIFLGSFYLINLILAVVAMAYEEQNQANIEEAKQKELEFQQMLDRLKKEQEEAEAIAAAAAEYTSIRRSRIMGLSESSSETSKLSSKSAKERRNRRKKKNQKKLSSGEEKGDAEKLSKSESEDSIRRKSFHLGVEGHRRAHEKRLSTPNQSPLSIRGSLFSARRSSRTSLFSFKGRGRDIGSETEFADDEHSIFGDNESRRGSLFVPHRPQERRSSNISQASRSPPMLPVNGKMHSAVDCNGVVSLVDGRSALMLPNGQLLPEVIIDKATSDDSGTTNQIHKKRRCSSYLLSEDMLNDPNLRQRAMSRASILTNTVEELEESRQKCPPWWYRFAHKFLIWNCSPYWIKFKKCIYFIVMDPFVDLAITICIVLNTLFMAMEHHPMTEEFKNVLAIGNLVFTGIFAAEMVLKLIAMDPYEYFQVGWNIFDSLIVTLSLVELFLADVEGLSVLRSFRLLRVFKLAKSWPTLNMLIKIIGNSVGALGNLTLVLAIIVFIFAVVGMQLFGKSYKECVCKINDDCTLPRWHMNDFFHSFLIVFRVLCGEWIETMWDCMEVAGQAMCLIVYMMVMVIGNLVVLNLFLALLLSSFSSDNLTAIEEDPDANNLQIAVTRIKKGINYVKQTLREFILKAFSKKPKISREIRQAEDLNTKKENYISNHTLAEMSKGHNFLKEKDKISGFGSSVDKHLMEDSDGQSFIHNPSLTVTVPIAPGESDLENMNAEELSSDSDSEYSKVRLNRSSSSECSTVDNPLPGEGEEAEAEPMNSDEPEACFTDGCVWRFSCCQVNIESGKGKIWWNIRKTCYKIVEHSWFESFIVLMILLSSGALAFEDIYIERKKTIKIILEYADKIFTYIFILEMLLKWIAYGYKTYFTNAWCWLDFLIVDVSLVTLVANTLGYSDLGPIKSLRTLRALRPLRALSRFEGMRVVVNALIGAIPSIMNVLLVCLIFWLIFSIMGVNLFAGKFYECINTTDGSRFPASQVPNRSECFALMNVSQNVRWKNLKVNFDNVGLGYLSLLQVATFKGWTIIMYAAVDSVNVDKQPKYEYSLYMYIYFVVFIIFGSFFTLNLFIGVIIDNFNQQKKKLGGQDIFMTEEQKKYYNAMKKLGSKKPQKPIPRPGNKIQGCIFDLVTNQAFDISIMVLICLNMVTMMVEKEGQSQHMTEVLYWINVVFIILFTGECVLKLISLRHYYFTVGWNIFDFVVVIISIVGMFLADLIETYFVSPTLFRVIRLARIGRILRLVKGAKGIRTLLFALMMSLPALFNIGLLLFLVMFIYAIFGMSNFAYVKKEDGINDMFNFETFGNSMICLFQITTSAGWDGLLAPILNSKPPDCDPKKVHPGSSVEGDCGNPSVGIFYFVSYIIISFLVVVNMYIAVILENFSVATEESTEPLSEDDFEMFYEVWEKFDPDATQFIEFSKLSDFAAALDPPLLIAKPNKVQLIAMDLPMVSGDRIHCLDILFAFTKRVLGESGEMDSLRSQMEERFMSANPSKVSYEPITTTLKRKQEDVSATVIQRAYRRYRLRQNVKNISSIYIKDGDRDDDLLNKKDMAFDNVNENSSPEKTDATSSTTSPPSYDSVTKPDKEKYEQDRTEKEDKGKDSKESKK
# Experimental: as §1, §2
# CHO cells expressing human NaV1.7 channels are grown in T225 flasks, in a 5% CO2 humidified incubator to about 80% confluence. Media composition consists of HAM/F12 with GlutaMAX™ I, 10% FCS, 100 units/mL penicillin and 100 microgram/mL hygromycin. […]
# as §4, §5
# [4] = molecular target: T4, human Nav1.7 (hSCN9A) (Homo sapiens, UniProt Q15858); assay: Electrophysiology assay (whole cell patch clamp), human Nav1.7 (hSCN9A) expressing CHO cells; settings: dissociation constant for the inactivated state (Kinact); read-out: activities (Ki) against NaV1.7
# T4 construct: expressed in transfected cells; host or cells: CHO
# T4 sequence (Q15858 whole entry): as above
# Experimental: (§6) Whole cell patch clamp recording is used to assess the efficacy or selectivity of Na channel blocker on human Nav1.3 (hSCN3A) expressing HEK293 cells or human Nav1.7 (hSCN9A) expressing CHO cells. Human Nav1.3 expressing HEK293 cells are grown in growth media which contain: Dulbecco's […] (DMEM), 10% heat-inactivated fetal bovine serum (FBS) (Hyclone Laboratories Inc), 100 microgram/mL penicillin/100 U/mL streptomycin, 150 microgram/mL Zeocin™, and 3 microgram/mL Geneticin. Human […], expressing CHO cells are grown in growth media which contain: HAM/F-12, 9% heat-inactivated FBS (Hyclone Laboratories Inc), and 100 microgram/mL penicillin/100 U/mL streptomycin, and 100 microgram/mL hygromycin.
# (§7) Na channel expressing cells are dissociated by 0.05 trypsin-EDTA, and then seeded on cover glass for 24 to 48 hr. […]
# (§8) The normalized steady-state inactivation curve is constructed using 2 sec (for vehicle) or 60 sec (for drugs) conditioning pulse to different potentials followed immediately by the test pulse to −10 mV. […] The affinity of drugs to resting state of Na channels (Kresting or Kt) is assessed by 30 msec test pulse from a negative holding potential of −120 or −130 mV, where virtually all channels are in the resting state. Kr value is calculated by a conventional 1:1 binding model: Kresting(Kr)={[drug]Imax,drug/(Imax,control−Imax,drug)} [Math.2] […]
# [5] = molecular target: T5, human Nav1.3 (hSCN3A) (Homo sapiens, UniProt Q9NY46); assay: Electrophysiology assay (whole cell patch clamp), human Nav1.3 (hSCN3A) expressing HEK293 cells; settings: dissociation constant for the inactivated state (Kinact); read-out: activities (Ki) against NaV1.3
# T5 construct: expressed in transfected cells; host or cells: HEK293
# Experimental: as §6, §7, §8
IC50 [1] [nM],IC50 [3] [nM],Ki [4] [nM],Ki [5] [nM],Structure (SMILES),IC50 [2] [nM]
440,1100,–,–,"CC(=O)Nc1nccc2c1CN(C(C)c1cnc(OCC(F)(F)F)c(C)c1)C2=O (single isomer, unassigned) [Example 2, N-(2-(1-(5-methyl-6-(2,2,2-trifluoroethoxy)pyridin-3-yl)ethyl)-1-oxo-2,3-dihydro-1H-pyrrolo[3,4-c]pyridin-4-yl)acetamide]",> 30000
–,–,91,140,"Cc1cc(C(C)N2Cc3c(ccnc3NC(=O)C(C)C)C2=O)cnc1OCC(F)(F)F (single isomer, unassigned) [Example 3, N-(2-(1-(5-methyl-6-(2,2,2-trifluoroethoxy)pyridin-3-yl)ethyl)-1-oxo-2,3-dihydro-1H-pyrrolo[3,4-c]pyridin-4-yl)isobutyramide]",–
